These results are taken from US12344610B2, “APOL1 inhibitors and methods of use” (Maze Therapeutics, Inc., priority 2022, dated 2025).

Assay [1] relates to Trypanosoma brucei Lister 427 VSG221 with APOL1 G0 recombinant protein. Kind of assay: APOL1 G0 trypanosome cell rescue assay (Example B5). The class given is cell-based. The settings on record: Trypanosoma brucei, 20 h, read-out: APOL1 G0 Trypanosome Rescue EC50, Trypanosoma brucei Lister 427 VSG221 with APOL1 G0 recombinant protein, 20 hours, CellTiter-Glo; geometric mean of at least 2 assay runs; † = single assay run. The method, boiled down: (§1)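 Luminescent ATP read-out (CellTiter-Glo) of trypanosome viability after 20 h at 37° C. Bloodstream T. brucei Lister 427 VSG221, 250/well in modified HMI-9, were exposed to recombinant mature APOL1 (aa 28-398) from a 2 μg/mL addition, plus compound in 11-point 2-fold series.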
On the technique in general: Cellular ATP, detected with luciferase, serves as a proxy for viable cell number.

For assay [2], the system named is Trypanosoma brucei Lister 427 VSG221 with APOL1 G2 recombinant protein. As to the kind of experiment: APOL1 G2 trypanosome cell rescue assay (Example B5). The class given is cell-based. As to conditions: Trypanosoma brucei, 20 h, read-out: APOL1 G2 Trypanosome Rescue EC50, Trypanosoma brucei Lister 427 VSG221 with APOL1 G2 recombinant protein, 20 hours, CellTiter-Glo; geometric mean of at least 2 assay runs; † = single assay run. The method, boiled down: as §1

Broadly, the EC50 is the concentration giving half of the maximal effect. With `[2H]C([2H])(Oc1cnc2c(c1)CCC(=O)N2[C@H]1C[C@@](C)(O)C1)C([2H])([2H])N1CCC2(CC1)C(=O)Nc1ccc(Cl)cc12` [Compound 426, 5-chloro-1′-[2-({7-oxo-8-[(cis)-3-hydroxy-3-methylcyclobutyl]-5,6,7,8-tetrahydro-1,8-naphthyridin-3-yl}oxy)(1,1,2,2-^2H4)ethyl]-1,2-dihydrospiro[indole-3,4′-piperidin]-2-one], the EC50 in assay [1] came out at 71 nM; in assay [2], 36.7 nM.

As to `C[C@]1(O)C[C@@H](n2cc3cc(OCCN4CCC5(CC4)C(=O)Nc4ccc(Cl)cc45)cc(C(F)(F)F)c3n2)C1` [Compound 427, 5-chloro-1′-[2-({2-[(cis)-3-hydroxy-3-methylcyclobutyl]-7-(trifluoromethyl)-2H-indazol-5-yl}oxy)ethyl]-1,2-dihydrospiro[indole-3,4′-piperidin]-2-one], the EC50 was found to be 15.6 nM in assay [1] and 6.62 nM in assay [2].

Consider `C[C@]1(O)C[C@@H](n2cc3cc(OCCN4CCC5(CC4)C(=O)Nc4ccc(C#N)cc45)cc(C(F)(F)F)c3n2)C1` [Compound 428, 2-oxo-1′-[2-({2-[(cis)-3-hydroxy-3-methylcyclobutyl]-7-(trifluoromethyl)-2H-indazol-5-yl}oxy)ethyl]-1,2-dihydrospiro[indole-3,4′-piperidine]-5-carbonitrile], for which the figures for the EC50 in assay [1] and in assay [2] were 63.3 nM and 32.3 nM, respectively.

Regarding `C[C@]1(O)C[C@@H](n2nnc3cc(OCCN4CCC5(CC4)C(=O)Nc4ccc(C#N)cc45)cc(C(F)(F)F)c32)C1` [Compound 435, 2-oxo-1′-[2-({1-[(cis)-3-hydroxy-3-methylcyclobutyl]-7-(trifluoromethyl)-1H-1,2,3-benzotriazol-5-yl}oxy)ethyl]-1,2-dihydrospiro[indole-3,4′-piperidine]-5-carbonitrile], the EC50 was determined as 27.1 nM in assay [1] and 14.5 nM in assay [2].

Turning to `C[C@]1(O)C[C@@H](n2cnc3cc(OCCN4CCC5(CC4)C(=O)Nc4ccc(Cl)cc45)cc(C#N)c32)C1` [Compound 439, 5-(2-{5-chloro-2-oxo-1,2-dihydrospiro[indole-3,4′-piperidin]-1′-yl}ethoxy)-1-[(cis)-3-hydroxy-3-methylcyclobutyl]-1H-1,3-benzodiazole-7-carbonitrile], the EC50 in assay [1] was 50.5 nM; in assay [2], 20.2 nM.

As to `C[C@]1(O)C[C@@H](n2nnc3cc(OCCN4CCC5(CC4)C(=O)Nc4ccc(Cl)cc45)cnc32)C1` [Compound 440, 5-chloro-1′-[2-({3-[(cis)-3-hydroxy-3-methylcyclobutyl]-3H-[1,2,3]triazolo[4,5-b]pyridin-6-yl}oxy)ethyl]-1,2-dihydrospiro[indole-3,4′-piperidin]-2-one], the results for the EC50 in assay [1] and in assay [2] were 160 nM and 70.5 nM, respectively.

For the molecule `CC1(O)CC2(CN(c3ncc(OCCN4CCC5(CC4)C(=O)Nc4ccc(Cl)cc45)cn3)C2)C1` [Compound 459, 5-chloro-1′-{2-[(2-{6-hydroxy-6-methyl-2-azaspiro[3.3]heptan-2-yl}pyrimidin-5-yl)oxy]ethyl}-1,2-dihydrospiro[indole-3,4′-piperidin]-2-one], the EC50 is 101 nM in assay [1] and 49.8 nM in assay [2].

With `C[C@]1(O)C[C@@H](N2C(=O)C3(CC3)c3cc(OCCN4CCC5(CC4)C(=O)Nc4ccc(Cl)cc45)cnc32)C1` [Compound 460, 5-chloro-1′-(2-{2′-oxo-1′-[(cis)-3-hydroxy-3-methylcyclobutyl]-1′,2′-dihydrospiro[cyclopropane-1,3′-pyrrolo[2,3-b]pyridin]-5′-yloxy}ethyl)-1,2-dihydrospiro[indole-3,4′-piperidin]-2-one], the figures for the EC50 in assay [1] and in assay [2] were 104 nM and 53.7 nM, respectively.

As to `[2H]C([2H])([2H])[C@]1(O)C[C@@H](N2C(=O)CCc3cc(OCCN4CCC5(CC4)C(=O)Nc4ccc(Cl)cc45)cnc32)C1` [Compound 461, 5-chloro-1′-[2-({7-oxo-8-[(cis)-3-hydroxy-3-(^2H3)methylcyclobutyl]-5,6,7,8-tetrahydro-1,8-naphthyridin-3-yl}oxy)ethyl]-1,2-dihydrospiro[indole-3,4′-piperidin]-2-one], the EC50 is 69.2 nM in assay [1] and 28.8 nM in assay [2].

Take `C[C@]1(O)C[C@@H](n2c(=O)[nH]c3cc(OCCN4CCC5(CC4)C(=O)Nc4ccc(Cl)cc45)cc(C(F)(F)F)c32)C1` [Compound 468, 5-chloro-1′-[2-({2-oxo-1-[(cis)-3-hydroxy-3-methylcyclobutyl]-7-(trifluoromethyl)-2,3-dihydro-1H-1,3-benzodiazol-5-yl}oxy)ethyl]-1,2-dihydrospiro[indole-3,4′-piperidin]-2-one]: the EC50 in assay [1] worked out at 3.72 nM; in assay [2], 2.4 nM.

In the case of `C[C@]1(O)C[C@@H](n2c(=O)[nH]c3cc(OCCN4CCC5(CC4)C(=O)Nc4ccc(C#N)cc45)cc(C(F)(F)F)c32)C1` [Compound 470, 2-oxo-1′-[2-({2-oxo-1-[(cis)-3-hydroxy-3-methylcyclobutyl]-7-(trifluoromethyl)-2,3-dihydro-1H-1,3-benzodiazol-5-yl}oxy)ethyl]-1,2-dihydrospiro[indole-3,4′-piperidine]-5-carbonitrile], the EC50 in assay [1] was 8.82 nM; in assay [2], 4.41 nM.
